# According to PubChem BioAssay (NCI):
# Values joined by “and” are separate entries in the source; they are usually repeats but may differ in a detail not shown here. Equal values may be shown once.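 GI50 = concentration required for 50% inhibition of growth. TGI denotes the concentration required for complete inhibition of growth.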
# Legend:
# Experiment in all cases: NCI anticancer screen, dose series, 384-well format
# [1] = test system: NCI-H226 lung
# [2] = test system: NCI-H23 lung
# [3] = test system: NCI-H322M lung
# [4] = test system: NCI-H460 NSCLC
# [5] = test system: NCI-H522 lung
# [6] = test system: NCI/ADR-RES ovarian
# [7] = test system: OVCAR-3 ovarian
# [8] = test system: OVCAR-4 ovarian
# [9] = test system: OVCAR-8 ovarian
# [10] = test system: PC-3 prostate
# [11] = test system: RPMI-8226 leukemia
# [12] = test system: RXF 393 renal
# [13] = test system: SF-268 CNS
# [14] = test system: SF-295 CNS
# [15] = test system: SF-539 CNS
# [16] = test system: SK-MEL-28 melanoma
# [17] = test system: SK-MEL-5 melanoma
# [18] = test system: SK-OV-3 ovarian
# [19] = test system: SN12C renal
# [20] = test system: SNB-19 CNS
# [21] = test system: SNB-75 CNS
# [22] = test system: SR leukemia
# [23] = test system: SW-620 colon
# [24] = test system: T-47D breast
# [25] = test system: TK-10 renal
# [26] = test system: U251 glioblastoma
# [27] = test system: UACC-257 melanoma
# [28] = test system: UACC-62 melanoma
# [29] = test system: UO-31 renal
structure (smiles),measurement,setting,value
Cc1cc(C(=O)NC(CCC(=O)O)C(=O)O)sc1CCC1CNc2nc(N)[nH]c(=O)c2C1 (stereo not drawn),GI50,[1],0.0242 µM and 0.0258 µM
same,TGI,[1],0.0591 µM and 0.0751 µM
same,GI50,[2],0.029 µM and 0.15 µM
same,TGI,[2],0.0854 µM and 0.401 µM
same,GI50,[3],0.0178 µM and 0.0202 µM
same,TGI,[3],0.037 µM and 0.0435 µM
same,GI50,[4],< 0.01 µM and 0.0109 µM
same,TGI,[4],> 100 µM
same,GI50,[5],< 0.01 µM and 0.0176 µM
same,TGI,[5],0.0187 µM and 0.0343 µM
same,GI50,[6],0.019 µM and 0.0175 µM
same,TGI,[6],0.0356 µM and 0.034 µM
same,GI50,[7],0.0217 µM and 0.029 µM
same,TGI,[7],0.0539 µM and 0.0826 µM
same,GI50,[8],0.0205 µM and 0.022 µM
same,TGI,[8],0.0881 µM and 0.0707 µM
same,GI50,[9],< 0.01 µM
same,TGI,[9],< 0.01 µM and 0.0116 µM
same,GI50,[10],< 0.01 µM
same,TGI,[10],< 0.01 µM
same,GI50,[11],0.0177 µM and 0.0171 µM
same,TGI,[11],0.0354 µM and 0.036 µM
same,GI50,[12],< 0.01 µM
same,TGI,[12],< 0.01 µM
same,GI50,[13],< 0.01 µM
same,TGI,[13],< 0.01 µM and 0.0187 µM
same,GI50,[14],0.0184 µM and 0.0186 µM
same,TGI,[14],0.0354 µM and 0.0363 µM
same,GI50,[15],< 0.01 µM
same,TGI,[15],< 0.01 µM and 0.0205 µM
same,GI50,[16],0.0132 µM and 0.0169 µM
same,TGI,[16],0.0296 µM and 0.0347 µM
same,GI50,[17],0.0245 µM and 0.0333 µM
same,TGI,[17],0.0916 µM and 0.202 µM
same,GI50,[18],< 0.01 µM
same,TGI,[18],< 0.01 µM
same,GI50,[19],< 0.01 µM
same,TGI,[19],< 0.01 µM and 0.0234 µM
same,GI50,[20],< 0.01 µM and 0.013 µM
same,TGI,[20],< 0.01 µM and 0.0301 µM
same,GI50,[21],< 0.01 µM
same,TGI,[21],< 0.01 µM and 0.0143 µM
same,GI50,[22],> 100 µM
same,TGI,[22],> 100 µM
same,GI50,[23],< 0.01 µM and 0.0133 µM
same,TGI,[23],0.0211 µM and 0.0356 µM
same,GI50,[24],0.0238 µM and 0.0303 µM
same,TGI,[24],> 100 µM
same,GI50,[25],< 0.01 µM
same,TGI,[25],< 0.01 µM
same,GI50,[26],< 0.01 µM and 0.0164 µM
same,TGI,[26],0.0229 µM and 0.0335 µM
same,GI50,[27],0.0129 µM and 0.0183 µM
same,TGI,[27],0.0365 µM and 0.0469 µM
same,GI50,[28],0.0113 µM and 0.0256 µM
same,TGI,[28],0.0594 µM and 0.0751 µM
same,GI50,[29],< 0.01 µM and 0.0187 µM
same,TGI,[29],< 0.01 µM and 0.0391 µM
